US8765750B2, “Piperazine compound having a PGDS inhibitory effect” (Taiho Pharmaceutical Co., Ltd., priority 2010, dated 2014)

Legend:
[1] = test system: PGD2 production in the nasal cavities of guinea pigs with antigen-induced rhinitis; assay: PGD2 production inhibiting action in the nasal cavities of guinea pigs with antigen-induced rhinitis; assay type: in vivo; conditions: 30 mg/kg orally 1 hour before induction of rhinitis reaction; washing 30 minutes after induction; * = significance level below 0.05 vs control group
Description: A physiological saline solution containing 1 mg/mL of ovalbumin was subcutaneously injected into the back of 5-week-old male Std: Hartley guinea pigs in an amount of 1 mL/body for active sensitization (initial sensitization). One week and two weeks after initial sensitization, 20 μL of a physiological saline solution containing 10 mg/mL of ovalbumin was instilled into each nasal cavity using a micropipette (sensitization by nasal administration). Three weeks after initial sensitization, 20 μL of a physiological saline solution containing 10 mg/mL of ovalbumin was instilled into each nasal cavity using a micropipette to induce a rhinitis reaction.
30 minutes after the induction of a rhinitis reaction, the nasal cavities were washed under pentobarbital sodium anesthesia. A nasal cavity washing liquid (phosphate buffered saline containing 3 mM of EDTA and 10 μM of indomethacin) was flushed using a Peristaltic Pump (Gilson, Inc.) in the direction from the trachea to the upper respiratory tract at a flow rate of 1 mL/min, and the liquid flowing out from the nasal cavities was collected for 1 minute. The collected liquid was centrifuged to separate the supernatant as the nasal cavity washing fluid. The concentration of PGD2 in the nasal cavity washing fluid was determined using an EIA kit (Prostaglandin D2-MOX EIA kit, Cayman Chemical).
The test compound (30 mg/kg) was orally administered 1 hour before induction of a rhinitis reaction. A formula to calculate the rate of decrease in PGD2 in the nasal cavity washing fluid is shown below. Rate (%) of decrease in PGD2 in the nasal cavity washing fluid={(PGD2 concentration in the control group−PGD2 concentration in the compound-administered group)÷(PGD2 concentration in the control group−PGD2 concentration in the normal group)}×100
8 or more cases were obtained from each group to determine whether expression of the PGD2 production inhibiting action occurred, and the PGD2 concentration in the nasal cavity washing fluid was compared between the control group and each compound-administered group. […] When the significance level was below 0.05, the action was considered to be present and indicated by a symbol (*) in the table. Reference Example 18, known as an H-PGDS inhibitor, was used as a positive control substance.

human H-PGDS = human H-PGDS (Homo sapiens (Human), UniProt O60760); assay: Hematopoietic prostaglandin D synthase (H-PGDS) inhibiting action; assay type: biochemical; conditions: for inhibition at 0.1 µM: compound at 0.1 μM, relative to the control group, human H-PGDS, [14C] prostaglandin H2 10 μM, read-out: Inhibition Rate (%) 0.1 μM
Description: The test was carried out according to the method of Urade, Y. et al. (J. Biol. Chem., 262, 3820-3825, (1987)). More specifically, the reaction mixture (49 μL) containing 100 mM Tris-HCl (pH 8.0), 1 mM reduced glutathione, 0.1 mg/mL γ-globulin, and human H-PGDS (q.s.), and a compound (final concentration: 0.01-100 μM) was preincubated at 25° C. for 5 minutes. A DMSO solution (final concentration: 1%) was added to the solvent control group. Subsequently, 1 μL of [^14C] prostaglandin H2 (final concentration: 10 μM) was added to start the reaction. One minute after the start of the reaction, 250 μL of a reaction stop solution (diethylether/methanol/1 M citric acid (30/4/1) at a temperature of −20° C. was added to stop the reaction. After the reaction was stopped, 50 μL of the upper-layer portion (organic solvent layer) was applied to a TLC plate and developed at −20° C. for 45 minutes (developing solvent: diethylether/methanol/acetic acid (90/2/1)). After drying the TLC plate, the TLC plate was exposed to an imaging plate for 1 to 24 hours, and the radioactivity corresponding to prostaglandin D2 (PGD2) was analyzed using an image analyzer (produced by Fujifilm Corporation). […]

Chain of human H-PGDS (O60760 whole entry): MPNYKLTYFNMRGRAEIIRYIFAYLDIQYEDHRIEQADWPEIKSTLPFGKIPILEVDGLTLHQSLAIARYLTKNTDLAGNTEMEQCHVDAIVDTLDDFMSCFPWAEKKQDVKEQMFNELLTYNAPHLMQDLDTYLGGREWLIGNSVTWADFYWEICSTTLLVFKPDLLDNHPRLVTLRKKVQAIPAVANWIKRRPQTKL

Compound	Rate (%) of decrease in PGD2 in the nasal cavity washing fluid [1] [%]	inhibition at 0.1 µM (human H-PGDS) [%]	IC50 (human H-PGDS) [µM]
O=C(Nc1nc2ccc(Cl)cc2s1)N1CCN(C(=O)c2cccc(F)c2)CC1 [Reference Example 16, 4-(3-fluorobenzoyl)-piperazine-1-carboxylic acid-(6-chlorobenzothiazol-2-yl)-amide, reference compound]	−38.1	33.8	–
O=C(Nc1ccc(C(F)(F)F)cc1)N1CCN(C(=O)c2cccc(F)n2)CC1 [Reference Example 17, 4-(6-fluoropyridine-2-carbonyl)-piperazine-1-carboxylic acid-(4-trifluoromethylphenyl)-amide, reference compound]	31.0	1.8	5.82
